In article PMC11786100, “Chronic GIPR agonism results in pancreatic islet GIPR functional desensitisation” (Molecular Metabolism, 2025):

Tests used:
Assay in all cases: HTRF cAMP assay in transiently transfected AD-293 cells
Format in all cases: cell-based
Conditions in all cases: 30 min stimulation, n = 3–5
mouse GLP-1R = target: T1, mouse GLP-1R (Mus musculus, UniProt O35659)
T1 construct: Plasmids encoding full length, wild-type human or mouse GLP-1R, GIPR or glucagon receptor (GCGR) in the pcDNA5/FRT vector; host or cells: AD-293
T1 sequence (O35659 22-463): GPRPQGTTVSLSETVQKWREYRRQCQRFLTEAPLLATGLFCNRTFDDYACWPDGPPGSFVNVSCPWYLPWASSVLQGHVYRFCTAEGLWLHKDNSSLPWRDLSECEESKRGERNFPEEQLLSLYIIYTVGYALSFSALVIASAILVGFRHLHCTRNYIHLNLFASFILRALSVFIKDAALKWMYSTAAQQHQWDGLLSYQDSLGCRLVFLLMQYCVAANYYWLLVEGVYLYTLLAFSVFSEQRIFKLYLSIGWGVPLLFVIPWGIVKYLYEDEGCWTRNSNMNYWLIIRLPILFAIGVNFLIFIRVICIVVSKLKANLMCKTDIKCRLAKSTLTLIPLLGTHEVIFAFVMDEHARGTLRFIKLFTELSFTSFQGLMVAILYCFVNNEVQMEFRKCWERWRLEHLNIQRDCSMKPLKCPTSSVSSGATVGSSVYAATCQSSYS
Description: (§1) AD-293 cells were transfected with desired plasmid DNA 24 h prior to cAMP quantification using the cAMP-Gs Dynamic 2 kit (Cisbio, France), as per manufacturer's protocol. Full details are provided in the supplementary methods.
(§2) AD-293 cells were added to a 12-well plate and maintained in 2 ml complete DMEM. 1 μg of specified plasmid DNA was added to each well alongside Lipofectamine 2000 (Thermo Fisher, UK). cAMP production was quantified 24 hours following transfection using homogenous time resolved fluorescence (HTRF), specifically the cAMP-Gs Dynamic 2 kit (Cisbio, France). Peptides and cells were diluted in DMEM + 1% P/S + 0.1% BSA. For peptide stability testing, cells, fresh peptide and peptide incubated with dispersed islet cells were diluted in RPMI-1640 (Thermo Fisher, UK) + 10% FBS + 1% P/S. 10 μl of peptide and 10 μl of cell suspension were added in duplicate to an opaque 96-well plate (Grenier Bio-One, Austria) and incubated at 37°C for 30 minutes. 10 μl of cAMP-d2 and anti-cAMP cryptate, both diluted in lysis buffer, were added in quick succession as per the manufacturer’s protocol. The plates were then incubated at room temperature for 45 minutes and read using the SpectraMax i3x (Molecular Devices, US).

human GIPR = target: T2, human GIPR (Homo sapiens, UniProt P48546)
T2 construct: Plasmids encoding full length, wild-type human or mouse GLP-1R, GIPR or glucagon receptor (GCGR) in the pcDNA5/FRT vector; host or cells: AD-293
T2 sequence (P48546 22-466): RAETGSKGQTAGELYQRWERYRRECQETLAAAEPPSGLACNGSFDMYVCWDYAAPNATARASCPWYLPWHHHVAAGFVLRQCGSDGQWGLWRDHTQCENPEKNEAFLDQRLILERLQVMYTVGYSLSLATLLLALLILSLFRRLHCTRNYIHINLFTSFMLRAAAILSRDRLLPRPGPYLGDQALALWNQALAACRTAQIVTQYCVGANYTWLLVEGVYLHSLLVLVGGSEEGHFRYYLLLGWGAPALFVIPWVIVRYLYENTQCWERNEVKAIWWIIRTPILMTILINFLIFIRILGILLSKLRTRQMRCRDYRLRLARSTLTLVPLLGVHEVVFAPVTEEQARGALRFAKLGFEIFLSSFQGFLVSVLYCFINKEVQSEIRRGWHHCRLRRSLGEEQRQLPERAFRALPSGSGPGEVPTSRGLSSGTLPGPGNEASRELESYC
Description: as §1, §2

human GLP-1R = target: T3, human GLP-1R (Homo sapiens, UniProt P43220)
T3 construct: Plasmids encoding full length, wild-type human or mouse GLP-1R, GIPR or glucagon receptor (GCGR) in the pcDNA5/FRT vector; host or cells: AD-293
T3 sequence (P43220 24-463): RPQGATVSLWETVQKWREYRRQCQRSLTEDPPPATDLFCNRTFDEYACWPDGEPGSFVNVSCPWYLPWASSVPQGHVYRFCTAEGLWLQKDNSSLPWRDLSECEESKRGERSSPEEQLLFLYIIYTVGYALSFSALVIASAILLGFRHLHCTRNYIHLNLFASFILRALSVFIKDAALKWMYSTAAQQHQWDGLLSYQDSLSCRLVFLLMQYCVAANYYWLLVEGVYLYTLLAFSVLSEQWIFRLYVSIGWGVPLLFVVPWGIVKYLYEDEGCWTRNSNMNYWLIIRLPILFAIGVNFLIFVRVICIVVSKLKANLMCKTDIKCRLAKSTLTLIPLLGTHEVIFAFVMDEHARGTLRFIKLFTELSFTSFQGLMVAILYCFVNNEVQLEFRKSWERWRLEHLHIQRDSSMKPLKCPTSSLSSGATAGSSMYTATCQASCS
Description: as §1, §2

human GCGR = target: T4, human GCGR (Homo sapiens, UniProt P47871)
T4 construct: Plasmids encoding full length, wild-type human or mouse GLP-1R, GIPR or glucagon receptor (GCGR) in the pcDNA5/FRT vector; host or cells: AD-293
T4 sequence (P47871 26-477): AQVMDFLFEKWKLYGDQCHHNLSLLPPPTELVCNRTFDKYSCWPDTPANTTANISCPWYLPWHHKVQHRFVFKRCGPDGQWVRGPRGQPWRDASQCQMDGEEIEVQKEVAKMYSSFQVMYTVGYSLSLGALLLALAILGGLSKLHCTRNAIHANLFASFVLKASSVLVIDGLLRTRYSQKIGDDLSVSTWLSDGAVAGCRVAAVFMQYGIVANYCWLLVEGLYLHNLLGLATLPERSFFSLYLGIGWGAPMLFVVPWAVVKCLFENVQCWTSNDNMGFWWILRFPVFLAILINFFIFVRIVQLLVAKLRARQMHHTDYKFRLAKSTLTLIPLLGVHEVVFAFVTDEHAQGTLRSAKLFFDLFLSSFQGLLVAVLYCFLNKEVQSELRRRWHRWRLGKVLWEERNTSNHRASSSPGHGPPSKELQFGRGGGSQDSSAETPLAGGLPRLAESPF
Description: as §1, §2

mouse GCGR = target: T5, mouse GCGR (Mus musculus, UniProt Q61606)
T5 construct: Plasmids encoding full length, wild-type human or mouse GLP-1R, GIPR or glucagon receptor (GCGR) in the pcDNA5/FRT vector; host or cells: AD-293
T5 sequence (Q61606 27-485): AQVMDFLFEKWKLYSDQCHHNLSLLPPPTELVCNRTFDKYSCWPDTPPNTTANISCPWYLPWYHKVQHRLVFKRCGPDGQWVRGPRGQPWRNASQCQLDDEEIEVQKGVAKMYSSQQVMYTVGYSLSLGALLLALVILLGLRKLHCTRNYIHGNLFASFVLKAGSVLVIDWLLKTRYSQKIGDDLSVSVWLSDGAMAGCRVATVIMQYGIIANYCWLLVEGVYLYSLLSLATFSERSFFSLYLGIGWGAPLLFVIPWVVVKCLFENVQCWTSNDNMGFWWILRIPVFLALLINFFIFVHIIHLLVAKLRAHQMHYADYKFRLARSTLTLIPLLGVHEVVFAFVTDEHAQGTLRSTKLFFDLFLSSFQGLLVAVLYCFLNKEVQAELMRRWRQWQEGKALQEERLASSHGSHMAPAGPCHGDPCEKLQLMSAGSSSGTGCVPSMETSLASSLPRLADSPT
Description: as §1, §2

mouse GIPR = test system: mouse GIPR
Description: as §1, §2

In the case of CC[C@H](C)[C@H](NC(=O)[C@H](CO)NC(=O)[C@H](Cc1ccc(O)cc1)NC(=O)[C@H](CC(=O)O)NC(=O)[C@H](CO)NC(=O)[C@@H](NC(=O)[C@H](Cc1ccccc1)NC(=O)[C@@H](NC(=O)CNC(=O)[C@H](CCC(=O)O)NC(=O)C(C)(C)NC(=O)[C@@H](N)Cc1ccc(O)cc1)[C@@H](C)O)[C@@H](C)CC)C(=O)N[C@@H](C)C(=O)N[C@@H](CC(C)C)C(=O)N[C@@H](CC(=O)O)C(=O)N[C@@H](CCCCN)C(=O)N[C@H](C(=O)N[C@@H](Cc1c[nH]cn1)C(=O)N[C@@H](CCC(N)=O)C(=O)N[C@@H](CCC(N)=O)C(=O)N[C@@H](CC(=O)O)C(=O)N[C@@H](Cc1ccccc1)C(=O)N[C@H](C(=O)N[C@@H](CC(N)=O)C(=O)N[C@@H](Cc1c[nH]c2ccccc12)C(=O)N[C@@H](CC(C)C)C(=O)N[C@@H](CC(C)C)C(=O)N[C@@H](C)C(=O)N[C@@H](CCC(N)=O)C(=O)N[C@@H](CCCCN)C(=O)NCC(=O)N[C@@H](CCCCNC(=O)CC[C@H](NC(=O)CCCCCCCCCCCCCCCCCCC(=O)O)C(=O)O)C(=O)N[C@@H](CCCCN)C(=O)N[C@@H](CC(N)=O)C(=O)N[C@@H](CC(=O)O)C(=O)N[C@@H](Cc1c[nH]c2ccccc12)C(=O)N[C@@H](CCCCN)C(=O)N[C@@H](Cc1c[nH]cn1)C(=O)N[C@@H](CC(N)=O)C(=O)N[C@H](C(=O)N[C@H](C(=O)N[C@@H](CCC(N)=O)C(=O)O)[C@@H](C)O)[C@@H](C)CC)C(C)C)[C@@H](C)CC [GIP108], the “cAMP activation of mouse GLP-1R” value (mouse GLP-1R) is reported as “minimal activation”, the “cAMP potency at human GIPR compared with human GIP(1–42)” value (human GIPR) is reported as “potency similar to human GIP(1–42)” and the “cAMP activation of human GLP-1R” value (human GLP-1R) is reported as “minimal activation”. For the same compound, the “cAMP activation of human GCGR” value (human GCGR) was “minimal activation”, the “cAMP activation of mouse GCGR” value (mouse GCGR) was “minimal activation” and the “fold lower cAMP potency than hGIP at mouse GIPR” value (mouse GIPR) was 19.6 fold.
